Laboratory results as given in patent publication US9481654B2, “Compositions and methods for inhibition of the JAK pathway” (Rigel Pharmaceuticals, Inc., priority 2006, dated 2016).

Experiments:
[1] = system: primary human T-cells (IL-2 induced proliferation, JAK-1/JAK-3, Stat-5); test: Primary Human T-Cell Proliferation Assay Stimulated with IL-2 (CellTiter-Glo); format: cell-based; details: Table III Example 4
Summary of the method: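 Pre-activated peripheral-blood T-cells (TCR/CD28 stimulated, IL-2-maintained) were IL-2-depleted, then plated in Yssel's medium with 80 U/mL IL-2 in the cell suspension and compound in duplicate. Proliferation ran 72 h at 37 °C; viable cells quantified by CellTiter-Glo ATP luminescence, with IL-2-omitted wells as unstimulated control.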

[2] = system: IFNγ induced ICAM-1 (CD54) up-regulation in A549 lung epithelial cells (JAK/Stat pathway); test: A549 Epithelial Line Stimulated with IFNγ (ICAM-1 surface expression, flow cytometry); format: cell-based, human; details: Table III Example 5
Summary of the method: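 A549 cells (20,000/well, adhered overnight) pre-treated with compound 1 h, then IFNγ 75 ng/mL for 24 h; compound 30 μM–14 nM in 5% FBS, 0.3% DMSO. Surface ICAM-1 stained with APC anti-CD54, geometric mean by flow cytometry; dose-response gives EC50.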

## CCNS(=O)(=O)c1cccc(Nc2ncc(C)c(Nc3ccc(CNS(=O)(=O)C4CC4)cc3)n2)c1 [Compound I-176, N4-(4-cyclopropylsulfonylaminomethyl)phenyl-N2-(3-ethylaminosulfonyl)phenyl-5-methyl-2,4-pyrimidinediamine]
[1]
  IC50: 0.0645 µM
[2]
  IC50: 10.4 µM
